The structures appear in SMILES notation.

This assay has as its system mESC Bmi1-luciferase reporter, firefly/renilla ratio, 24 h. Description: Bmi1-luciferase reporter activators in mESC, dose response, esBAF inhibitor project, mouse embryonic stem cells, cherry-pick (AID 651717).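 Note: luciferase knocked into Bmi1 locus with EF-1a renilla as cell number control; rising ratio signals esBAF inhibition which derepresses Bmi1.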 A general note: In a reporter assay the amount or activity of a reporter protein is the signal.
In the case of `Nc1ccc(C(=O)OCc2nc3ccccc3[nH]2)cc1`, the AC40 is 19.1 µM.
The result for `COC(=O)c1c(-c2ccc(S(C)(=O)=O)cc2)sc2ccc(OC)cc12` reads 0.954 µM; that for `COc1ccc(NC(=O)c2cc3sccc3n2Cc2ccc(F)cc2)cc1OC`, 13.8 µM.
Consider `Cc1ccc2c(CN(C)Cc3cccc(F)c3)cc(=O)oc2c1`, for which the AC40 is 2.23 µM.
The result for `O=C(NC1CCCCCCC1)c1cccc(Cl)c1` reads 10.7 µM; that for `CCCN1CCN(CCCNC(=O)c2ccc3nc(N4CCCCC4)sc3c2)CC1`, 13.3 µM.
The result for `COc1ccc(N2CCN(C(=O)C3Cc4ccccc4CN3C(=O)c3ccccc3)CC2)cc1` (stereo not drawn) reads 16.5 µM; that for `O=C(Cc1ccccc1)N/N=C/c1ccccc1OCc1ccc(Cl)cc1`, 4.61 µM.
The result for `COc1cccc(/C=C2\SC(N3CCCC(C)C3)=NC2=O)c1OC` (stereo not drawn) reads 9.58 µM; that for `Cc1cccc(OCc2nc3ccccc3c(=O)n2N)c1`, 7.24 µM.
Turning to `CN(C)c1cccc(-c2csc(N3CCC(C(N)=O)CC3)n2)c1`, the AC40 is 0.362 µM.
Consider `CC(O)(c1ccccc1)c1nc(-c2cccc(C(=O)O)c2)cs1` (stereo not drawn), for which the AC40 was 4.13 µM.
Then `O=C(O)C=C1CCN(c2ncc(C(F)(F)F)cc2Cl)CC1`, with 2.07 µM.
Then `Cc1ccc(NC(=O)c2ccc3c(c2)CCN3S(C)(=O)=O)cc1`, with 10.5 µM.
Turning to `O=C(Nc1ccc(SC(F)F)cc1)c1ccc2c(=O)n3c(nc2c1)CCC3`, the AC40 was 2.02 µM.
The result for `Cc1cc2oc(=O)cc(CN3CCC(C)CC3)c2c(C)c1Cl` reads 4.55 µM; that for `O=C(CCNS(=O)(=O)c1cccs1)N1CCc2ccccc2C1`, 6.72 µM.
The result for `COc1cc(C2Nc3cc(Cl)c(S(N)(=O)=O)cc3S(=O)(=O)N2)ccc1OCc1ccccc1` (stereo not drawn) reads 3.48 µM.
The result for `Cc1csc(NC(=O)Nc2ccc(Cl)cc2)n1` reads 2.68 µM; that for `CN(C)c1ncnc2c1ncn2-c1ccccc1`, 9.34 µM; that for `Cc1cccc(-n2nnc(C(=O)Nc3ccc(F)cc3)c2N)c1`, 0.798 µM.
Take `CC(=Nc1ccccc1O)c1sc2ccccc2c1O`: the AC40 was 3.82 µM.
Turning to `CO[C@H]1CN(C)C(=O)c2cc(NC(=O)NC(C)C)ccc2OC[C@@H](C)N(Cc2ccc(-c3ccccn3)cc2)C[C@@H]1C`, the AC40 is 22.6 µM.
Then `CCN(CC)S(=O)(=O)c1ccc2c(c1)nc(-c1ccccn1)n2C`, with 11.1 µM; and `Cc1ccc(C(=O)CN2C(=O)NC3(CCCCCC3)C2=O)c(C)c1`, with 1.63 µM; and `Fc1cccc(-c2ncc(-c3ccccc3)o2)c1`, with 0.768 µM.
The result for `O=C(NC1CCCCC1)c1ccc2ccccc2c1O` reads 1.27 µM.
The result for `CCCNC(=O)Nc1ccc2c(c1)C(=O)N(C)C[C@H](OC)[C@@H](C)CN(Cc1ccc(-c3ccccn3)cc1)[C@H](C)CO2` reads 1.73 µM; that for `Cn1cccc1C(=O)NC1CCCCCC1`, 3.74 µM.
Consider `CCC(=O)n1nc(-c2ccc(Cl)cc2)nc1SC`, for which the AC40 is 3.71 µM.
The result for `Cc1ccc(OCc2cc(C(=O)N(C)CCc3ccccn3)no2)cc1C` reads 2.28 µM; that for `Cc1cc(=O)oc2cc(NC(=O)c3cccc(F)c3)ccc12`, 1.82 µM.
The result for `O=C(Nc1ccc(Cl)c(Cl)c1)c1ccncc1` reads 6.32 µM; that for `O=C(c1ccccc1)c1ccc2ccccc2c1`, 3.04 µM.
The result for `Cc1c(C(=O)NCc2cccnc2)sc2nc(-c3ccc(F)cc3)cn12` reads 12.2 µM; that for `O=c1oc(-c2ccccc2)cc2ccccc12`, 3.89 µM.
Consider `Cc1ccc(-c2csc(NC(=O)c3ccno3)n2)cc1`, for which the AC40 is 8.99 µM.
Then `COc1cccc(-c2nc(-c3ccc(NC(=O)c4cccs4)cc3)no2)c1`, with 4.26 µM.
The result for `CCn1c2ccccc2c2cc(NC(=O)N3CCCCC3)ccc21` reads 1.19 µM; that for `Clc1ccc(-c2csc(N3CCSCC3)n2)cc1`, 5.65 µM.
Then `CO[C@H]1CN(C)C(=O)c2ccc(NC(=O)Nc3ccc4c(c3)OCO4)cc2OC[C@@H](C)NC[C@H]1C`, with 3.55 µM.
In the case of `COc1ccc(/C=C2/SC(=O)N(CCNC(=O)CC(NC(C)=O)c3ccccc3)C2=O)cc1` (stereo not drawn), the AC40 is 10.2 µM.
Then `c1ccc(-c2noc(CC3CCCCC3)n2)cc1`, with 4.12 µM; and `Cc1cc(F)ccc1-c1cc(C(=O)Nc2ccc(F)cc2)[nH]n1`, with 0.757 µM; and `COCOCCn1cc(CN2CCS(=O)(=O)N(Cc3ccc(-c4ccc(Cl)nc4)cc3)C(CC(C)C)C2=O)nn1` (stereo not drawn), with 34.2 µM.
Consider `Fc1ccc(CSc2ccc(-c3cccs3)nn2)cc1`, for which the AC40 was 5.03 µM.
Turning to `CCOc1ccc2nc(NC(=O)CSc3nnc(-c4ccncc4)n3CC3CCCO3)sc2c1` (stereo not drawn), the AC40 is 7.34 µM.
Then `Oc1ccccc1/C=N/N1CCN(c2ccccn2)CC1`, with 2.75 µM; and `O=c1cc(-c2ccccc2Cl)oc2cc(O)cc(O)c12`, with 12 µM; and `CC(C)c1ccc(CNc2ncc(Br)cn2)cc1`, with 4.25 µM.
The result for `COc1ccc(/C=C/C(=O)Oc2cccc(/C=N/NC(=O)Cc3ccc(Br)cc3)c2)cc1` reads 4.57 µM; that for `Cc1c(Cl)cccc1NC(=O)c1cc(C2CC2)on1`, 1.81 µM.
On to `COc1ccccc1-c1nc(SCc2ccccn2)n[nH]1`, for which the AC40 is 8.67 µM.
Then `CN(c1nc(-c2ccccc2)cs1)C1CCS(=O)(=O)C1` (stereo not drawn), with 20.3 µM; and `c1ccc2c(c1)Nc1cc3ccccc3cc1O2`, with 4.66 µM; and `O=C(N/N=C/c1ccccc1)c1ccc(NC(=O)c2ccc(F)cc2)cc1`, with 1.46 µM.
Turning to `C#CCSc1nnc(-c2ccc(O)cc2)o1`, the AC40 was 8.15 µM.
Then `Cc1cccc(NC(=O)CCCc2ccccc2)c1`, with 9.57 µM; and `COc1ccc(NC(=O)Cc2ccccc2)cc1`, with 8.22 µM; and `C/C(=N\NC(=O)c1cccs1)c1ccc2ccccc2c1`, with 12 µM.
The result for `COc1ccc(CNC(=O)c2ccc(-c3ccccc3)cc2)cc1` reads 6.89 µM; that for `COc1cc2[nH]c(C(=O)N3CCc4ccccc43)cc2c(OC)c1OC`, 2.77 µM.
Then `CCN(C(=O)c1cccs1)c1nnc(-c2ccncc2)s1`, with 1.05 µM; and `CCn1ccnc1CN(C)C(=O)c1cc(COc2ccccc2SC)on1`, with 8.01 µM.
For the compound `CN(C)c1ccc(CSc2ccccc2)cc1`, the AC40 was 2.77 µM.
The result for `CN1CCN(C(=O)C[C@@H]2CC[C@@H]3[C@H](COC[C@@H](O)CN3C(=O)Nc3ccc4c(c3)OCO4)O2)CC1` reads 24.2 µM.
Then `COc1ccccc1CNc1nc2cc(-c3sccc3C)sc2c(=O)n1C`, with 6.95 µM; and `O=C(Nc1ccc(F)cc1)c1ccccc1`, with 7.36 µM.
Then `Cc1ccc(Nc2cccccc2=O)cc1`, with 3.88 µM; and `COc1cc2ccccc2cc1C(=O)Nc1ccc(Br)cn1`, with 0.489 µM.
With `C=CCNc1nc2cc(-c3ccccc3OC)sc2c(=O)n1C`, the AC40 was 5.18 µM.
The result for `Cc1ccc(NC(=O)c2cccc3ccccc23)cc1` reads 13.9 µM.
The result for `Fc1cccc(Cl)c1/C=N/Nc1ccccn1` reads 8.55 µM; that for `c1ccc(Cn2cnc3ccccc32)cc1`, 0.984 µM; that for `O=C(NCC1CC1)Nc1ccc(Cl)cc1`, 15.5 µM.
The result for `O=C(c1ccncc1)N(c1ccc(N2CCOCC2)cc1)C(c1ccccc1)c1nc2ccccc2[nH]1` (stereo not drawn) reads 1.01 µM; that for `Cc1ccccc1CNC(=O)Nc1ccc(Cl)cc1`, 15.1 µM; that for `O=c1c2ccccc2nnn1CSc1nnnn1-c1ccccc1`, 9.13 µM.
With `NC(N)=NC(=O)c1nc(Cl)c(N2CCCCCC2)nc1N`, the AC40 is 3.13 µM.
Then `CC1CCCC(C)N1C(=O)c1cc(-c2ccc(Cl)c(Cl)c2)on1` (stereo not drawn), with 6.88 µM; and `Cc1cccc(N=[N+]([O-])c2cccc(C)n2)n1`, with 6.4 µM; and `COc1ccc(/C=N/NC(=O)Cc2cccs2)cc1`, with 8.51 µM.
Turning to `C=CCn1cccc(C(=O)Nc2ccc(F)cc2)c1=O`, the AC40 is 7.32 µM.
The result for `COc1ccc(F)cc1-c1cc(C(=O)Nc2cccnc2)[nH]n1` reads 3.06 µM; that for `Cc1cc(-c2nnc(-c3cccc(C(F)(F)F)c3)o2)no1`, 6.58 µM; that for `Cc1cc(NC(=O)CC2CCCC2)ccc1Br`, 11.8 µM.
For `Cc1sc2nc(-c3cccnc3)nc(Cl)c2c1-c1ccccc1`, the AC40 was 19.5 µM.
The result for `O=C(CC(=O)c1ccccc1)c1ccccc1` reads 2.47 µM; that for `CC(C)Cn1cnc2c(SCc3ccccc3)nc(N)nc21`, 8.9 µM.
Then `Cc1sc2nc(-c3ccc(Br)cc3)oc(=O)c2c1C`, with 1.61 µM; and `O=C(Nc1ccc(Nc2ccccc2)cc1)Nc1ccccc1Cl`, with 4.5 µM; and `N#CCc1nc(CSc2nc3ccccc3o2)cs1`, with 12.3 µM.
Then `CCN(C(=O)CN1C(=O)S/C(=C\C=C\c2ccccc2)C1=O)C1CCS(=O)(=O)C1` (stereo not drawn), with 3.85 µM.
`c1ccc(CCNc2nc3ccccc3s2)cc1`: the AC40 was 3.14 µM.
Then `CN(CC(=O)Nc1cccc(F)c1)C(=O)c1sc2ccccc2c1Cl`, with 23.3 µM; and `COc1ccc(-c2nc(C#N)c(NC(C)C)o2)cc1`, with 2.38 µM; and `O=C(/C=N/NC(=O)c1ccc(Cl)cc1Cl)c1ccccc1`, with 1.41 µM.
Then `COc1ccccc1C(=O)Nn1cnc2ccccc2c1=O`, with 8.5 µM; and `Cn1c(C(=O)N/N=C/c2ccccc2)cc2ccccc21`, with 2.84 µM; and `CC(=O)c1ccc(S(=O)(=O)N(Cc2cc3cc4c(cc3[nH]c2=O)OCCO4)CC2CCCO2)cc1` (stereo not drawn), with 15.2 µM.
Turning to `Cc1cc(Br)ccc1OCc1nc(-c2cccnc2)no1`, the AC40 was 9.06 µM.
The result for `OCc1c(OCc2cccc(F)c2)ccc2ccccc12` reads 7.24 µM; that for `O=C(Nc1cccc2ccccc12)c1cnccn1`, 6.43 µM.
Take `Cc1cc(C(=O)Cn2cnc3ccccc3c2=O)c(C)n1C1CC1`: the AC40 was 2.92 µM.
The result for `Cc1ccc(CNc2cccnc2)cc1` reads 25.7 µM; that for `Cc1ccc(C)c(N2CCN(C(=O)CCc3nc(-c4ccccc4C(F)(F)F)no3)CC2)c1`, 4.63 µM.
The result for `COc1cc2ccccc2cc1C(=O)Nc1ccccc1C` reads 1.85 µM; that for `Cc1cccc(-c2noc(Cc3ccc(Cl)cc3)n2)c1`, 5.96 µM.

(Values after PubChem BioAssay AID651717 (Broad Institute, 2012).)
